For experiment [1], the system named is MV-4-11 (biphenotypic B myelomonocytic leukemia) cells. Description: In vitro cell proliferation assay (CellTiter-Glo). Type of experiment: cell-based. The settings on record: Homo sapiens, MV4-11, MV-4-11 cells, 72 hours. Here is the method:
In vitro Cell Proliferation Assay
MV-4-11 (biphenotypic B myelomonocytic leukemia) cells (1250 cells/well) were seeded in white 384 well-plates in complete medium (RPMI 1640 or EMEM plus 10% Fetal bovine serum) and treated with compounds dissolved in 0.1% DMSO, 24 h after seeding. The cells were incubated at 37° C. and 5% CO2 and after 72 hours the plates were processed using CellTiter-Glo assay (Promega) following the manufacturer's instruction.
CellTiter-Glo is a homogenous method based on the quantification of the ATP present, an indicator of metabolically active cells. ATP is quantified using a system based on luciferase and D-luciferin resulting into light generation. The luminescent signal is proportional to the number of cells present in culture.
Briefly 25 μl/well reagent solution were added to each wells and after 5 minutes shacking microplates were red by Envision (PerkinElmer) luminometer. The luminescent signal was proportional to the number of cells present in culture.
Inhibitory activity was evaluated comparing treated versus control data using Assay Explorer (MDL) program. IC50 was calculated using sigmoidal interpolation curve.
(In general: ATP-based viability assays read luminescence as a measure of living cells.)

A further experiment deals with Full-length human PIM1 (Homo sapiens (Human), UniProt P11309). Description: Biochemical assay for inhibitors of PIM1 kinase activity (33P trans-phosphorylation, Dowex). The settings on record: ATP 200 μM, Aktide 25 μM, enzyme 1 nM; read-out: PIM-1 IC50. Here is the method: The short forms and abbreviations used herein have the following meaning: • Ci Curie • DMSO dimethylsulfoxide • KDa kiloDalton • microCi microCurie • mg milligram • microg microgram • ng nanogram • L liter • mL milliliter • μL microliter • M molar • mM millimolar • μM micromolar • nM nanomolar Biochemical Assay for Inhibitors of PIM1 Kinase Activity
Chain of Full-length human PIM1 (P11309 whole entry): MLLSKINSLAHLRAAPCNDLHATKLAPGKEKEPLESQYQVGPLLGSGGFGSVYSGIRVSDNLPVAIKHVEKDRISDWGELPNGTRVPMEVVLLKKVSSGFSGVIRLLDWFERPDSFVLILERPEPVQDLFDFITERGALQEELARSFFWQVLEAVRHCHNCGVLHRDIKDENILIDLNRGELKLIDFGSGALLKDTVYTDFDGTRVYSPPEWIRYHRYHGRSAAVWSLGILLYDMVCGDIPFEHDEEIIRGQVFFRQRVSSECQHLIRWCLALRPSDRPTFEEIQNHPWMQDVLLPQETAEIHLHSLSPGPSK
The inhibitory activity of putative kinase inhibitors and the potency of selected compounds were determined using a trans-phosphorylation assay.
Specific peptide or protein substrates are trans-phosphorylated by their specific ser-thr or tyr kinase in the presence of ATP traced with ^33P-γ-ATP, and in the presence of their own optimal buffer and cofactors.
At the end of the phosphorylation reaction, more than 98% unlabeled ATP and radioactive ATP is captured by an excess of the ion exchange Dowex resin; the resin then settles down to the bottom of the reaction plate by gravity. Supernatant is subsequently withdrawn and transferred into a counting plate, then evaluated by β-counting.
The buffer for PIM1 assay was composed of HEPES 50 mM, at pH 7.5, with 10 mM MgCl2, 1 mM DTT, 3 μM NaVO3, and 0.2 mg/mL BSA.
Full-length human PIM1 was expressed and purified as described in Bullock A N, et al., J. Biol. Chem. 2005, 280, 41675-82.
ATP concentration: 200 μM
Enzyme concentration: 1 nM
Substrate concentration Aktide (Chemical Abstract Service Registry Number 324029-01-8): 25 μM
The test mix consisted of: • 1) 3× Enzyme mix (done in Kinase Buffer 3×), 5 μL/well • 2) 3× substrate and ATP mix (done in ddH2O), together with ^33P-γ-ATP, 5 μL/well • 3) 3× test compounds (diluted into ddH2O-3% DMSO)—5 μL/well
An automated station (Biomek FX, Beckman) was used for serial dilutions, producing 1:3 dilutions in 100% DMSO, from line A1 to A10, for all the compounds in the column. […] In a standard experiment, the highest concentration (3×) of compounds is typically 30 μM, while the lowest one is typically 1.5 nM. Each 384-well plate generates at least one curve of the standard inhibitor staurosporine and reference wells (total enzyme activity vs. no enzymatic activity) for evaluation of Z′ and signal to background (SIB) ratio.
384-well plates, V bottom (test plates) are prepared with 5 μl of compound diluted as previously described (3×) and then placed onto a PlateTrak 12 robotized station (Perkin Elmer; the robot has one 384-tip pipetting head for assay start, plus one 96-tip head for dispensing resin) together with one reservoir for Enzyme mix (3×) and one for ATP mix (3×).
Data are analyzed by an internally customized version of the “Assay Explorer” SW package, which provides sigmoidal fitting of the ten-dilution curves for IC50 determination in secondary assay/hit confirmation routines.

Another experiment has as its target Full-length human PIM2 (Homo sapiens (Human), UniProt Q9P1W9). Kind of experiment: PIM2 kinase inhibition assay: Dowex technique. It counts as biochemical. The settings on record: ATP 4 μM, Aktide 5 μM, enzyme 1.5 nM; read-out: PIM-2 IC50. Here is the method: Method for PIM2 Kinase Inhibition Assay: Dowex Technique
The buffer for PIM2 assay was composed of HEPES 50 mM, at pH 7.5, with 1 mM MgCl2, 1 mM DTT, 3 μM Na3VO4, and 0.2 mg/mL BSA.
Full-length human PIM2 was expressed and purified as described in Fedorov O, et al., PNAS 2007 104, 51, 20523-28.
Enzyme concentration=1.5 nM
Aktide substrate (Chemical Abstract Service Registry Number 324029-01-8)=5 μM
See above: same procedure as described for PIM1.

Chain of Full-length human PIM2 (Q9P1W9 whole entry): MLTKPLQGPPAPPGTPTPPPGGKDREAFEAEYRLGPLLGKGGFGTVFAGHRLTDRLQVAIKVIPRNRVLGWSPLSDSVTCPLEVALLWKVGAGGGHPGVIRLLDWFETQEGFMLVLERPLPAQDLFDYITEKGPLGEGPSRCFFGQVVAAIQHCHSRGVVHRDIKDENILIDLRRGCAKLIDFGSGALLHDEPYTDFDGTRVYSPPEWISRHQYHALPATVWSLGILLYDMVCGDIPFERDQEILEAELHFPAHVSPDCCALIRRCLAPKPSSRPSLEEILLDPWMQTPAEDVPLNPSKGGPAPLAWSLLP

Usually IC50 stands for the concentration needed to halve the response being measured. For the compound `CN1CCN(C[C@@H](NC(=O)C[C@H]2CNC(=O)c3cc(-c4cccc(Cl)c4)cn32)C2CCCCC2)CC1` [Compound 2, 2-[(4S)-7-(3-chlorophenyl)-1-oxo-1,2,3,4-tetrahydropyrrolo[1,2-a]pyrazin-4-yl]-N-[(1S)-1-cyclohexyl-2-(4-methylpiperazin-1-yl)ethyl]acetamide], the values for the IC50 (in experiment [1]; at Full-length human PIM1) were 1530 nM and 1 nM, respectively.

Consider `CN(C)C1CCN(C[C@@H](NC(=O)C[C@H]2CNC(=O)c3cc(-c4ccc(F)c(F)c4)cn32)C2CCCCC2)CC1` [Compound 6, N-{(1S)-1-cyclohexyl-2-[4-(dimethylamino)piperidin-1-yl]ethyl}-2-[(4S)-7-(3,4-difluorophenyl)-1-oxo-1,2,3,4-tetrahydropyrrolo[1,2-a]pyrazin-4-yl]acetamide], for which the IC50 in experiment [1] came out at 3150 nM; on Full-length human PIM1, 8 nM; at Full-length human PIM2, 171 nM.

For `CN(C)C1CCN(C[C@@H](NC(=O)C[C@H]2CNC(=O)c3cc(-c4ccnc(F)c4)cn32)C2CCCCC2)CC1` [Compound 10, N-{(1S)-1-cyclohexyl-2-[4-(dimethylamino)piperidin-1-yl]ethyl}-2-[(4S)-7-(2-fluoropyridin-4-yl)-1-oxo-1,2,3,4-tetrahydropyrrolo[1,2-a]pyrazin-4-yl]acetamide], the IC50 was 6750 nM in experiment [1], 6 nM at Full-length human PIM1 and 57 nM on Full-length human PIM2.

With `CN(C)C1CCN(C[C@@H](NC(=O)C[C@H]2CNC(=O)c3cc(-c4cccc(Cl)c4)cn32)C2CCCCC2)CC1` [Compound 23, 2-[(4S)-7-(3-chlorophenyl)-1-oxo-1,2,3,4-tetrahydropyrrolo[1,2-a]pyrazin-4-yl]-N-{(1S)-1-cyclohexyl-2-[4-(dimethylamino)piperidin-1-yl]ethyl}acetamide], the IC50 in experiment [1] stood at 1130 nM; at Full-length human PIM1, 1 nM; at Full-length human PIM2 it was 36 nM.

`CN1CCN(C[C@@H](NC(=O)C[C@H]2CNC(=O)c3cc(-c4cc(Cl)ccc4F)cn32)C2CCCCC2)CC1` [Compound 26, 2-[(4S)-7-(5-chloro-2-fluorophenyl)-1-oxo-1,2,3,4-tetrahydropyrrolo[1,2-a]pyrazin-4-yl]-N-[(1S)-1-cyclohexyl-2-(4-methylpiperazin-1-yl)ethyl]acetamide]: the values for the IC50 (in experiment [1]; on Full-length human PIM1; at Full-length human PIM2) were 1160 nM, 2 nM and 132 nM, respectively.

For the origin of these results see patent publication US9145418B2, “Substituted 3,4-dihydropyrrolo[1,2-a]pyrazin-1(2H)-ones as protein kinase inhibitors” (NERVIANO MEDICAL SCIENCES S.R.L., priority 2011, dated 2015).
